Results as given in the NIST ThermoML archive (doi:10.1016/j.tca.2008.05.002).

Assay: molar heat capacity at saturation pressure
Conditions: Small (less than 1 g) adiabatic calorimetry

CCCCn1cc[n+](C)c1.O=[N+]([O-])[O-] [1-butyl-3-methylimidazolium nitrate]
Conditions | molar heat capacity [J/K/mol]
223.56 K, Crystal 4 | 239.25
224.66 K, Crystal 4 | 240.26
225.64 K, Crystal 4 | 241.27
226.74 K, Crystal 4 | 242.07
227.72 K, Crystal 4 | 243.28
228.81 K, Crystal 4 | 244.08
229.79 K, Crystal 4 | 245.29
230.88 K, Crystal 4 | 246.1
231.86 K, Crystal 4 | 247.3
232.95 K, Crystal 4 | 248.31
233.92 K, Crystal 4 | 249.32
235.01 K, Crystal 4 | 250.32
235.97 K, Crystal 4 | 251.53
237.06 K, Crystal 4 | 252.54
238.03 K, Crystal 4 | 253.54
239.1 K, Crystal 4 | 254.75
239.2 K, Crystal 4 | 254.95
240.07 K, Crystal 4 | 255.55
241.14 K, Crystal 4 | 256.96
241.7 K, Crystal 4 | 257.57
242.11 K, Crystal 4 | 257.77
243.17 K, Crystal 4 | 259.18
244.08 K, Crystal 4 | 260.18
244.15 K, Crystal 4 | 259.98
245.2 K, Crystal 4 | 261.39
246.17 K, Crystal 4 | 262.6
246.45 K, Crystal 4 | 262.8
247.22 K, Crystal 4 | 263.8
248.19 K, Crystal 4 | 265.01
248.81 K, Crystal 4 | 265.61
249.23 K, Crystal 4 | 266.42
250.2 K, Crystal 4 | 267.63
251.15 K, Crystal 4 | 268.43
251.23 K, Crystal 4 | 269.04
252.21 K, Crystal 4 | 270.04
253.23 K, Crystal 4 | 271.45
253.48 K, Crystal 4 | 271.45
254.2 K, Crystal 4 | 272.66
255.22 K, Crystal 4 | 274.27
255.8 K, Crystal 4 | 274.87
256.19 K, Crystal 4 | 275.68
257.2 K, Crystal 4 | 277.29
258.1 K, Crystal 4 | 278.49
258.18 K, Crystal 4 | 278.49
259.18 K, Crystal 4 | 280.3
260.15 K, Crystal 4 | 281.51
260.4 K, Crystal 4 | 282.11
261.14 K, Crystal 4 | 283.32
262.11 K, Crystal 4 | 284.53
262.67 K, Crystal 4 | 286.14
263.1 K, Crystal 4 | 286.54
264.07 K, Crystal 4 | 287.95
264.94 K, Crystal 4 | 289.96
265.05 K, Crystal 4 | 289.56
266.02 K, Crystal 4 | 291.37
267 K, Crystal 4 | 293.79
267.19 K, Crystal 4 | 294.19
267.95 K, Crystal 4 | 295.4
268.93 K, Crystal 4 | 297.81
269.43 K, Crystal 4 | 299.02
269.88 K, Crystal 4 | 299.82
270.85 K, Crystal 4 | 302.44
271.65 K, Crystal 4 | 304.85
271.78 K, Crystal 4 | 304.65
271.8 K, Liquid | 345.1
272.76 K, Crystal 4 | 307.47
273.68 K, Crystal 4 | 310.69
273.85 K, Crystal 4 | 312.1
274.46 K, Liquid | 345.9
274.66 K, Crystal 4 | 313.71
275.56 K, Crystal 4 | 318.94
276.02 K, Crystal 4 | 318.54
276.35 K, Crystal 4 | 310.08
277.02 K, Liquid | 346.71
277.33 K, Crystal 4 | 355.76
277.73 K, Crystal 4 | 345.5
277.82 K, Crystal 4 | 609.71
278.14 K, Crystal 4 | 322.56
278.16 K, Crystal 4 | 408.68
278.25 K, Crystal 4 | 455.57
278.82 K, Crystal 3 | 545.72
279.03 K, Crystal 3 | 470.06
279.41 K, Liquid | 347.51
279.47 K, Crystal 3 | 414.92
279.88 K, Crystal 3 | 382.53
280.31 K, Crystal 3 | 308.07
280.95 K, Crystal 3 | 310.08
281.81 K, Liquid | 348.32
281.84 K, Crystal 3 | 313.91
281.86 K, Crystal 3 | 314.31
282.47 K, Crystal 3 | 319.54
283.34 K, Crystal 3 | 324.98
283.95 K, Crystal 3 | 333.43
284.03 K, Crystal 3 | 333.23
284.21 K, Liquid | 349.12
284.81 K, Crystal 3 | 341.48
285.42 K, Crystal 3 | 355.56
286.1 K, Crystal 3 | 372.26
286.25 K, Crystal 3 | 363.41
286.61 K, Liquid | 349.93
286.8 K, Crystal 3 | 390.78
287.64 K, Crystal 3 | 372.26
288.03 K, Crystal 3 | 432.83
288.12 K, Crystal 2 | 417.54
